{"source": "patent US20090176850A1", "about": "“Novel 2-Amino-Imidazole-4-One Compounds And Their Use In The Manufacture Of A Medicament To Be Used In The Treatment Of Cognitive Impairment, Alzheimer's Disease, Neurodegeneration And Dementia” (ASTRAZENECA AB, priority 2005, published 2009)", "origin": "cited, not measured here", "target": "BACE (Homo sapiens, UniProt P56817)", "sequence (P56817 46-501)": "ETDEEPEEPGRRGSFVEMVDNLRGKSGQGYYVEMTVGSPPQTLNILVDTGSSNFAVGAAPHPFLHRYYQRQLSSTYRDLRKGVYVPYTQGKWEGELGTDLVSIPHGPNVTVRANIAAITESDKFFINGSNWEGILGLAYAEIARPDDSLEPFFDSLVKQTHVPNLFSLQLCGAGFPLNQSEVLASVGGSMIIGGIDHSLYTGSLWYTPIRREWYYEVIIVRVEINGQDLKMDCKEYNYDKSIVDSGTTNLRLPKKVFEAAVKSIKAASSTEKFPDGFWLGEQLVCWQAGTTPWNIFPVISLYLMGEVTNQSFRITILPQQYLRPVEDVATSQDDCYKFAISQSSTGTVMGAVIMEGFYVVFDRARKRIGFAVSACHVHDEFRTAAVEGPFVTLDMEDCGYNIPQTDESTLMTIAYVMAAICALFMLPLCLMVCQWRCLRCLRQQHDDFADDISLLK", "conditions": "Vassar et al, 1999", "note": "Non-standard residues stand in square brackets, D forms with d. Residues, ends and D or L forms follow the SMILES beside them. *: point of attachment. Sta = CC(C)C[C@H](N)[C@@H](O)CC(=O)O; Isovaleryl = CC(C)CC(=O)*"}
{"molecule": "CC(C)CC(=O)N[C@H](C(=O)N[C@H](C(=O)N[C@@H](CC(C)C)[C@@H](O)CC(=O)N[C@@H](C)C(=O)N[C@@H](CC(C)C)[C@@H](O)CC(=O)O)C(C)C)C(C)C", "note": "[pepstatin] (Isovaleryl-VV[Sta]A[Sta]-OH)", "values": [{"measurement": "inhibition of BACE", "result": "inhibited weakly"}]}
